Earlier results, collected in patent US20020193323A1, “Compositions and methods for promoting a healthy cardiovascular system and enhancing blood flow” (priority 2000, published 2002).

Tests used:
[1] = in vivo
glutathione system = conditions: selenium supplementation, through activation of the glutathione system

Row | SMILES | reduce risk of major coronary events [1] [%] | reduced lipid peroxidation levels (glutathione system) [%]
1 | CC1=C(/C=C/C(C)=C/C=C/C(C)=C/C=C/C=C(C)/C=C/C=C(C)/C=C/C2=C(C)CCCC2(C)C)C(C)(C)CCC1 [Beta-carotene] | 51 | –
2 | [Se] [selenium] | – | 50
